Results as given in patent US10668033B2, “Modulators of the prostacyclin (PGI2) receptor useful for the treatment of disorders related thereto” (Arena Pharmaceuticals, Inc., priority 2008, dated 2020).

Tests used:
[1] = Pharmacokinetics in rats after oral administration of Compound 99; type: in vivo, Sprague-Dawley rat; conditions: for half-life: read-out: terminal phase half-life (T1/2) (converted)
Method: Blood samples were obtained from 0.100 to 21.0 h post-dose for plasma drug concentration measurements. […] Pharmacokinetic parameters were estimated using non-compartmental pharmacokinetic analysis.

[2] = Plasma profile in rats after 10 mg/kg oral dose of Compound 22 sodium salt; type: in vivo; conditions: rat, after a 10 mg/kg oral dose of Compound 22 (sodium salt, FIG. 25), male rats
[3] = Excipient compatibility (stability) study; type: physicochemical; conditions: four weeks in a glass vial at 50° C.
Method: Compound 22 was tested for stability in three of the excipients.

[4] = system: MCT-induced pulmonary arterial hypertension; assay: Rat monocrotaline (MCT) model of pulmonary arterial hypertension; type: in vivo; conditions: 30 mg/kg oral gavage twice a day for 21 days; 60 mg/kg MCT s.c.; male Wistar rats
Method: Male Wistar rats (100-150 g at start of study) (Charles River Laboratories, Wilmington, Mass.) were housed two per cage and maintained in a humidity—(40-60%) and temperature—(68-72° F.) controlled facility on a 12 hr:12 hr light/dark cycle (lights on at 6:30 am) with free access to food (Harlan Teklad, Orange Calif., Rodent Diet 8604) and water. Rats were allowed one week of habituation to the animal facility before testing.
The rat monocrotaline (MCT) model is a standard and well-accepted model of pulmonary arterial hypertension. MCT induces acute pulmonary endothelial damage associated with pulmonary vascular inflammation. […]
Rats were randomly given a single subcutaneous injection of either 60 mg/kg MCT (Sigma, St. Louis, Mo.) or 0.9% saline (sham) and assigned to receive oral administration of 20% hydroxypropyl beta-cyclodextrin (vehicle) or test compound (30 mg/kg; FIGS. 7 and 8). […] Heart chamber weights were measured on Day 22. […] The ratio of right ventricular (RV) weight to left ventricle plus septum (LV+S) weight (this ratio is indicated as “RV/(LV+S)” in FIGS. 7 and 8) was calculated as an index of the hypertrophic response to the induced pulmonary arterial hypertension and, as such, as an index of a test compound's therapeutic efficacy for pulmonary arterial hypertension.

[5] = system: Sprague-Dawley rat hepatocytes; assay: Hepatocyte metabolism of Compound 22 sodium salt, rat; type: in vitro ADME; conditions: 100 μM, up to 240 min
Method: (§1) All cryopreserved hepatocytes were thawed and diluted to a desired cell density (1×10^6 cells/mL) according to the supplier's (Xenotech) guidelines using hepatocytes isolation kit. Cell viability was determined by trypan blue exclusion using a hemacytometer. A typical incubation mixture contained human, cynomolgus monkey, beagle dog or Sprague-Dawley rat hepatocytes (200,000 cells/199 μL) in designated wells of a 48-well plate containing incubation medium (Phenol red-free Waymouth's medium). […] One incubation plate was prepared for each time point (i.e., 0, 60, 120, and 240 min) with samples being prepared in duplicate. Incubations were conducted at 37° C., 5% CO2 and 100% relative humidity in an incubator. At each time point, one incubation plate was removed form the incubator, and reaction was terminated by adding 400 μL of acetonitrile containing an internal standard. For the 0 min time point, the reactions were kept on ice before adding Compound 22 sodium salt. After 5 min on ice, the reaction mixture was terminated by adding 400 μL of acetonitrile containing an internal standard. Supernatants were transferred to labeled strip tubes with caps, which were vortexed for 3 min, and then sonicated for an additional 3 min. The samples were centrifuged for 10 min at 4000 rpm and the supernatants were used for metabolite identification. […]

[6] = system: cynomolgus monkey hepatocytes; assay: Hepatocyte metabolism of Compound 22 sodium salt, monkey; type: in vitro ADME; conditions: 100 μM, up to 240 min
Method: as §1

human hepatocytes = assay: Hepatocyte metabolism of Compound 22 sodium salt, human; type: in vitro ADME; conditions: 100 μM, up to 240 min
Method: as §1

beagle dog hepatocytes = assay: Hepatocyte metabolism of Compound 22 sodium salt, dog; type: in vitro ADME; conditions: 100 μM, up to 240 min
Method: as §1

[7] = In vivo metabolism of Compound 22 sodium salt in bile-duct cannulated rats; design: species or system Sprague-Dawley rat
Method: Three bile-duct cannulated male Sprague-Dawley rats were dosed intravenously (IV) at 2.00 mg/kg. In addition to plasma samples, bile and urine were collected from 0 to 48 hours post-dose.

[8] = Excipient solubility study
Method: The solubility of 2-(((1r,4r)-4-(((4-chlorophenyl)(phenyl)carbamoyloxy)methyl)cyclohexyl)methoxy)acetic acid (Compound 22) and sodium 2-(((1r,4r)-4-(((4-chlorophenyl)(phenyl)carbamoyloxy)methyl)cyclohexyl)methoxy)acetate (Compound 22 sodium salt) in various excipients was measured.

[9] = Dynamic vapor sorption (DVS) hygroscopicity; type: physicochemical; conditions: at 90% relative humidity; listed as Form 1 of the sodium salt of Compound 22
Method: Hygroscopicity was measured using a dynamic moisture-sorption analyzer, VTI Corporation, SGA-100. The sample was placed as-is in a tared sample holder on the VTI balance. A drying step was run at 40° C. and ˜1% RH for 60 to 120 min. The isotherm conditions are 25° C. with steps of 20% RH from 10% RH up to 90% RH and back to 10% RH. The weight was checked every 2 min. Percent weight change of <0.01% in 20 min or 2 h, whichever occurs first, is required before continuing to the next step.

[10] = Sprague-Dawley, rat, plasma analyte after 1.25 mg/kg oral dose of Compound 99, male rats
[11] = plasma analyte after 1.25 mg/kg oral dose of Compound 99, male rats

Compound: O=C(O)COC[C@H]1CC[C@H](COC(=O)N(c2ccccc2)c2ccc(Cl)cc2)CC1 [Compound 22, 2-(((1r,4r)-4-(((4-chlorophenyl)(phenyl)carbamoyloxy)methyl)cyclohexyl)methoxy)acetic acid]
- AUC(0-t) [1, 10]: 935 ng·h/mL
- Cmax [1, 10]: 214 ng/mL
- half-life [1, 10]: 3.51 h
- time of Cmax [1, 11]: 2.67 h
- Tmax [2]: 1.5 h
- stability in solution ([3]; Cremophor RH 40): no observable degradation or API assay loss
- stability in solution ([3]; Imwitor 742): no observable degradation or API assay loss
- stability in solution ([3]; TPGS 1000): no observable degradation or API assay loss
- hypertrophic response, RV/(LV+S) [4]: inhibited the hypertrophic response

Compound: O=C(COC[C@H]1CC[C@H](COC(=O)N(c2ccccc2)c2ccc(Cl)cc2)CC1)NCCS(=O)(=O)O [Compound 99, 2-(2-(((1r,4r)-4-(((4-chlorophenyl)(phenyl)carbamoyloxy)methyl)cyclohexyl)methoxy)acetamido) ethanesulfonic acid]
- conversion to parent ([1]; 1.25 mg/kg oral dose in rats): converted to Compound 22
- exposure ([1]; 1.25 mg/kg oral dose in rats): minimal exposure
- AUC(0-t) [1, 10]: 11.9 ng·h/mL
- Cmax at 3.33 h [1, 10]: 1.93 ng/mL
- half-life [1, 10]: 3.24 h
- Tmax ([1]; male, Sprague-Dawley, rat, plasma, 10 mg/kg, after oral dose of the taurine conjugate of Compound 22): 3 h
- time of Cmax [1, 11]: 3.33 h
- metabolite of Compound 22 sodium salt in rat hepatocytes [5]: detected
- metabolite of Compound 22 sodium salt in monkey hepatocytes [6]: detected
- metabolite of Compound 22 sodium salt in human hepatocytes (human hepatocytes): detected
- metabolite of Compound 22 sodium salt in dog hepatocytes (beagle dog hepatocytes): detected
- metabolite in bile ([7]; 2.00 mg/kg IV of Compound 22 sodium salt, bile 0 to 48 hours): observed in bile
- metabolite in urine ([7]; 2.00 mg/kg IV of Compound 22 sodium salt, urine 0 to 48 hours): not observed in urine
- metabolite of Compound 22 sodium salt in rats ([7]; 2.00 mg/kg IV, male rats): major metabolite

Compound: O=C(O)CNC(=O)COC[C@H]1CC[C@H](COC(=O)N(c2ccccc2)c2ccc(Cl)cc2)CC1 [Compound 100, 2-(2-(((1r,4r)-4-(((4-chlorophenyl)(phenyl)carbamoyloxy)methyl)cyclohexyl)methoxy)acetamido) acetic acid]
- metabolite of Compound 22 sodium salt in rat hepatocytes [5]: only detected in human and monkey
- metabolite of Compound 22 sodium salt in monkey hepatocytes [6]: detected
- metabolite of Compound 22 sodium salt in human hepatocytes (human hepatocytes): detected
- metabolite of Compound 22 sodium salt in dog hepatocytes (beagle dog hepatocytes): only detected in human and monkey

Compound: O=C([O-])COC[C@H]1CC[C@H](COC(=O)N(c2ccccc2)c2ccc(Cl)cc2)CC1.[Na+] [Sodium Salt of Compound 22, sodium 2-(((1r,4r)-4-(((4-chlorophenyl)(phenyl)carbamoyloxy)methyl)cyclohexyl)methoxy)acetate]
- Solubility ([8]; Corn Oil): <100 µg/mL
- Solubility ([8]; Cremophor RH 40): 7820 µg/mL
- Solubility ([8]; Gelucire 44/14): 1610 µg/mL
- Solubility ([8]; Gelucire 50/13): <10000 µg/mL
- Solubility ([8]; Imwitor 742): 16200 µg/mL
- Solubility ([8]; Labrasol): 12980 µg/mL
- Solubility ([8]; Lauroglycol 90): 260 µg/mL
- Solubility ([8]; PEG400): 4850 µg/mL
- Solubility ([8]; PEG6000): <10000 µg/mL
- Solubility ([8]; Safflower oil): <100 µg/mL
- Solubility ([8]; TPGS 1000): 2550 µg/mL
- DVS absorption [9]: less than 0.25%
